The source of these data is US9452159B2, “6-aminopyridine-3-ol derivatives or pharmaceutically acceptable salts thereof, and pharmaceutical composition containing same as active ingredients for preventing or treating diseases caused by angiogenesis” (Research Cooperation Foundation of Yeungnam University, priority 2011, dated 2016).

SMILES strings stand for the structures. Like-named read-outs stand apart in the source and are kept apart here.

The assay relates to chorioallantoic membrane (CAM). As to the kind of experiment: Chorioallantoic membrane (CAM) assay, VEGF-derived angiogenesis. As to conditions: for angiogenesis inhibiting effects: VEGF-treated CAM, summary of Table 1, 6a compared with SU4312, batimastat and α-tocopherol. The assay is classed as in vivo, chick. Here is the method: To examine angiogenesis inhibiting effects in vivo, CAM assay was performed (Nguyen Metal., Microvascular Res., 47, pp 31-40, 1994). Hen's fertile eggs were incubated at a temperature of 37° C. and in relative humidity 55%, and on the 10th day after the incubation, an air sac site was punched by using a hypodermic needle (Greencross Medical Science Corp, Korea) to form a first hole, and then, a planar site of the fertile egg where a window was to be formed was punched to form a second hole. Air was removed through the first pore of the air sac site to allow the chorioallantoic membrane (CAM) to be separated from the shell of the fertile egg, and this site was cut by using a grinding wheel (Multipro 395JA, Dremel, Mexico) to form a window. […] Through the window, the filter disc was placed on blood vessels, which were then treated with the compounds each dissolved in dimethylsulfoxide (DMSO) and diluted with phosphate buffer solution (PBS) at various concentrations. 3 days after the treatment with the compounds, the CAM site with the filter disc placed thereon was separated, and then washed with a phosphate buffer solution, and an image thereof was obtained by using a stereomicroscope (Stemi SV6 stereomicroscope, Carl Zeiss, Germany) and image-Pro Plus software (Media Cybernetics; Silver Spring, Md., U.S.A.) to count the number of blood vessel branches, and the obtained results were assayed.

Setting [1] is: Gallus gallus, 72 h, VEGF (50 ng/CAM) + 3.0 ng/CAM, 1.1 μM, 3 days after treatment, read-out: Inhibition ratio.
Where [2] appears, read: VEGF (50 ng/CAM) + 3.0 ng/CAM, 1.1 μM, 3 days after treatment.
The mark [3] stands for this setting: Gallus gallus, 72 h, VEGF (50 ng/CAM) + 2.0 ng/CAM, 1.0 μM, 3 days after treatment, read-out: Inhibition ratio.
The mark [4] stands for this setting: VEGF (50 ng/CAM) + 2.0 ng/CAM, 1.0 μM, 3 days after treatment.
Setting [5] is: Gallus gallus, 72 h, VEGF (50 ng/CAM) + 3.0 ng/CAM, 1.3 μM, 3 days after treatment, read-out: Inhibition ratio.
Where [6] appears, read: VEGF (50 ng/CAM) + 3.0 ng/CAM, 1.3 μM, 3 days after treatment.
Where [7] appears, read: Gallus gallus, 72 h, VEGF (50 ng/CAM) + 3.0 ng/CAM, 1.0 μM, 3 days after treatment, read-out: Inhibition ratio.
[8] abbreviates: VEGF (50 ng/CAM) + 3.0 ng/CAM, 1.0 μM, 3 days after treatment.
[9] abbreviates: VEGF (50 ng/CAM) + 1.0 μg/CAM, 378 μM, 3 days after treatment.
The mark [10] stands for this setting: VEGF (50 ng/CAM) + 3.0 ng/CAM, 0.7 μM, 3 days after treatment.
Where [11] appears, read: VEGF (50 ng/CAM) + 100 ng/CAM, 23 μM, 3 days after treatment.

Consider `Cc1nc(Nc2ccccc2C(C)C)c(C)c(C)c1O` [Compound 6h, 6-((2-isopropylphenyl)amino)-2,4,5-trimethylpyridin-3-ol], for which the inhibition in vivo at 1.1 µM under setting [1] amounted to 55.3 ± 20.3%. For the same molecule, under setting [2], the “Number of blood vessel branches/main blood vessel” value was 28.4 ± 2.7^8.
As to `Cc1nc(NCc2ccccc2)c(C)c(C)c1O` [Compound 6f, 6-(benzylamino)-2,4,5-trimethylpyridin-3-ol], where the note is “Gallus gallus, 72 h, VEGF (50 ng/CAM) + 3.0 ng/CAM, 1.2 μM, 3 days after treatment, read-out: Inhibition ratio”, the inhibition in vivo at 1.2 µM amounted to 56.7 ± 16.8%. Moreover, the “Number of blood vessel branches/main blood vessel” value (VEGF (50 ng/CAM) + 3.0 ng/CAM, 1.2 μM, 3 days after treatment) is on record as 25.8 ± 3.2^8.
For the molecule `Cc1nc(-n2cccc2)c(C)c(C)c1O` [Compound 6p, 2,4,5-trimethyl-6-(1H-pyrrol-1-yl)pyridin-3-ol], the inhibition in vivo at 1 µM under setting [3] stood at 44 ± 17.2%. Further, the “Number of blood vessel branches/main blood vessel” value under setting [4] is on record as 33.6 ± 5.5^8.
Consider `Cc1nc(Nc2ccccc2)c(C)c(C)c1O` [Compound 6g, 2,4,5-trimethyl-6-(phenylamino)pyridin-3-ol], for which the angiogenesis inhibiting effects result is reported as “excellent angiogenesis inhibiting effects”. Moreover, under setting [5], the inhibition in vivo at 1.3 µM is 69.4 ± 5.7%. Also, the “Number of blood vessel branches/main blood vessel” value under setting [6] is recorded as 23.3 ± 1.1^8.
Regarding `Cc1nc(N(c2ccccc2)c2ccccc2)c(C)c(C)c1O` [Compound 6l, 6-(diphenylamino)-2,4,5-trimethylpyridin-3-ol], the angiogenesis inhibiting effects result was “excellent angiogenesis inhibiting effects”. The inhibition in vivo at 1 µM under setting [7] came to 65.4 ± 14.6%. Further, the “Number of blood vessel branches/main blood vessel” value under setting [8] is 26.8 ± 4.6^8.
For the molecule `CCCCCCCCCCCCCCCCNc1nc(C)c(O)c(C)c1C` [Compound 6c, 6-(hexadecylamino)-2,4,5-trimethylpyridin-3-ol], the inhibition in vivo at 0.8 µM (Gallus gallus, 72 h, VEGF (50 ng/CAM) + 3.0 ng/CAM, 0.8 μM, 3 days after treatment, read-out: Inhibition ratio) came to 30.1 ± 20%. Under “VEGF (50 ng/CAM) + 3.0 ng/CAM, 0.8 μM, 3 days after treatment”, the “Number of blood vessel branches/main blood vessel” value was 30.8 ± 3.8^8.
Turning to `Cc1nc(N2CCOCC2)c(C)c(C)c1O` [Compound 6o, 2,4,5-trimethyl-6-morpholinopyridin-3-ol], under setting [3], the inhibition in vivo at 1 µM was 59 ± 11%. Besides, the “Number of blood vessel branches/main blood vessel” value under setting [4] is on record as 28.8 ± 3.7^8.
`Cc1nc(N(C)c2ccccn2)c(C)c(C)c1O` [Compound 6q, 2,4,5-trimethyl-6-(methyl(pyridin-2-yl)amino)pyridin-3-ol]: the inhibition in vivo at 1 µM (Gallus gallus, 72 h, VEGF (50 ng/CAM) + 2.4 ng/CAM, 1.0 μM, 3 days after treatment, read-out: Inhibition ratio) is 42.2 ± 21.7%. Further, the “Number of blood vessel branches/main blood vessel” value (VEGF (50 ng/CAM) + 2.4 ng/CAM, 1.0 μM, 3 days after treatment) is on record as 34.2 ± 6.9^8.
`Cc1nc(NC2CCCCC2)c(C)c(C)c1O` [Compound 6e, 6-(cyclohexylamino)-2,4,5-trimethylpyridin-3-ol]: the inhibition in vivo at 1.3 µM under setting [5] is 36.8 ± 10.7%. For the same molecule, the “Number of blood vessel branches/main blood vessel” value under setting [6] is reported as 35.3 ± 4.0^8.
The corresponding values for `CCCCCCNc1nc(C)c(O)c(C)c1C` [Compound 6b, 6-(hexylamino)-2,4,5-trimethylpyridin-3-ol] are 53.7 ± 10.3% and 26.3 ± 2.0^8.
With `Cc1nc(NCCCOc2nc(C)c(O)c(C)c2C)c(C)c(C)c1O` [Compound 6d-2, 6-(3-((5-hydroxy-3,4,6-trimethylpyridin-2-yl)amino)propoxy)-2,4,5-trimethylpyridin-3-ol], the angiogenesis inhibiting effects entry is “excellent angiogenesis inhibiting effects”. The inhibition in vivo at 1 µM (Gallus gallus, 72 h, VEGF (50 ng/CAM) + 3.5 ng/CAM, 1.0 μM, 3 days after treatment, read-out: Inhibition ratio) was determined as 67.3 ± 13.9%. Further, the “Number of blood vessel branches/main blood vessel” value (VEGF (50 ng/CAM) + 3.5 ng/CAM, 1.0 μM, 3 days after treatment) is listed as 26.2 ± 4.4^8.
As for `Br.Cc1nc(Nc2ccccc2)c(C)c(C)c1O` [Compound 6g-HBr, 2,4,5-trimethyl-6-(phenylamino)pyridin-3-ol hydrobromide], the inhibition in vivo at 1 µM under setting [7] was 55 ± 10.6%. Moreover, the “Number of blood vessel branches/main blood vessel” value under setting [8] was 28.6 ± 3.9^8.
`CN(C)c1ccc(/C=C2\C(=O)Nc3ccccc32)cc1` [SU4312, reference compound]: under setting [9], the Inhibition ratio was 74.6 ± 12.1^8 and the “Number of blood vessel branches/main blood vessel” value was 24 ± 4.6^8.
For `Cc1nc(N2CCN(C)CC2)c(C)c(C)c1O` [Compound 6n, 2,4,5-trimethyl-6-(4-methylpiperazin-1-yl)pyridin-3-ol], the inhibition in vivo at 1 µM under setting [3] stood at 24.7 ± 21.3%. Moreover, the “Number of blood vessel branches/main blood vessel” value under setting [4] is reported as 39.8 ± 6.8^8.
In the case of `Cc1nc(Nc2ccc3c(c2)OCO3)c(C)c(C)c1O` [Compound 6k, 6-(benzo[d][1,3]dioxol-5-ylamino)-2,4,5-trimethylpyridin-3-ol], the angiogenesis inhibiting effects result is on record as “excellent angiogenesis inhibiting effects”. The inhibition in vivo at 1.1 µM under setting [1] worked out at 62.4 ± 11.6%. Also, the “Number of blood vessel branches/main blood vessel” value under setting [2] is 25.8 ± 4.3^8.
Consider `Cc1c(C)c2c(c(C)c1O)CC[C@@](C)(CCC[C@H](C)CCC[C@H](C)CCCC(C)C)O2` [α-Tocopherol, reference compound], for which, under setting [10], the Inhibition ratio is listed as 45.1 ± 9.3^8 and the “Number of blood vessel branches/main blood vessel” value was found to be 32.3 ± 3.5. Under setting [11], the Inhibition ratio is listed as 64.4 ± 14.2^8 and the “Number of blood vessel branches/main blood vessel” value is 24.3 ± 2.7^8.
`Cc1nc(N2CCCC2)c(C)c(C)c1O` [Compound 6m, 2,4,5-trimethyl-6-(pyrrolidin-1-yl)pyridin-3-ol]: the angiogenesis inhibiting effects result is given as “excellent angiogenesis inhibiting effects”. In addition, the inhibition in vivo at 1 µM under setting [3] is 60.5 ± 12.7%. Also, the “Number of blood vessel branches/main blood vessel” value under setting [4] is 27.6 ± 4.2^8.
On to `CNC(=O)[C@H](Cc1ccccc1)NC(=O)[C@H](CC(C)C)[C@H](CSc1cccs1)C(=O)NO` [Batimastat, reference compound], for which the inhibition in vivo at 200 µM (Gallus gallus, 72 h, VEGF (50 ng/CAM) + 1.0 μg/CAM, 200 μM, 3 days after treatment, read-out: Inhibition ratio) was found to be 78.4 ± 7.4%. In addition, the “Number of blood vessel branches/main blood vessel” value (VEGF (50 ng/CAM) + 1.0 μg/CAM, 200 μM, 3 days after treatment) is on record as 19.9 ± 2.87^8.
As to `Cc1nc(Nc2ccc(Br)cc2)c(C)c(C)c1O` [Compound 6j, 6-((4-bromophenyl)amino)-2,4,5-trimethylpyridin-3-ol], the inhibition in vivo at 1 µM under setting [7] amounted to 61.7 ± 7.7%. Moreover, the “Number of blood vessel branches/main blood vessel” value under setting [8] is 30.7 ± 2.6^8.
As to `Cc1nc(NCCCO)c(C)c(C)c1O` [Compound 6d-1, 6-((3-hydroxypropyl)amino)-2,4,5-trimethylpyridin-3-ol], the inhibition in vivo at 1.4 µM (Gallus gallus, 72 h, VEGF (50 ng/CAM) + 3.0 ng/CAM, 1.4 μM, 3 days after treatment, read-out: Inhibition ratio) was determined as 46.3 ± 12%. For the same molecule, under “VEGF (50 ng/CAM) + 3.0 ng/CAM, 1.4 μM, 3 days after treatment”, the “Number of blood vessel branches/main blood vessel” value is 27.8 ± 2.3^8.
